Reference: patent publication US6432655B1, “Method of obtaining compositions” (Synaptic Pharmaceutical Corporation, priority 1992, dated 2002)
Read-outs that look alike come from different tables or passages of the source.

Key:
5-HT4B receptor = target: T1, 5-HT4B receptor (Rattus norvegicus, UniProt P32305); test: [3H]5-CT receptor autoradiography on rat brain sections; type: binding; conditions: for effect on [3H]5-CT binding: masks: 100 nM PAPP and 160 nM (−)pindolol added together
T1 construct: from tissue; host or cells: rat brain cryostat sections (20 µm)

[1] = target: T2, human 5-HT4B receptor (clone hp78a) (Homo sapiens, UniProt P34969); test: [3H]5-HT radioligand binding to membranes of Cos-7 cells transiently expressing clone hp78a
T2 construct: The entire coding region of the human 5-HT4B receptor (1338 bp); expressed in transfected cells; host or cells: Cos-7 (monkey kidney), transient, plasmid hp78a/EXJ (pcEXV-5HT4B)

human 5-HT4B receptor [2] = target: T3, human 5-HT4B receptor (Homo sapiens, UniProt P34969); test: cAMP formation in intact, transiently transfected Cos-7 cells; type: cell-based; conditions: for activity at the clone hp78a receptor: compounds used to define the classical 5-HT4 receptor; for stimulation of basal cAMP release: 1 μM
T3 construct: The entire coding region of the human 5-HT4B receptor (1338 bp); expressed in transfected cells

human 5-HT4B receptor [3] = target: T3, human 5-HT4B receptor; test: cell-based; type: cell-based; conditions: for Emax: L-M(TK-), read-out: Emax* (% 5-HT RESPONSE)
[4] = test system: 5-HT receptor present in glial membranes; conditions: Fillion et al., 1980, property shared with hp78a, cited from earlier work
[5] = test system: untransfected or mock-transfected Cos-7 cells; test: cAMP in untransfected or mock-transfected Cos-7 cells; type: cell-based, monkey; conditions: 1 μM
Method: Both the 5-HT-mediated inhibition and stimulation of cAMP levels were evaluated in these three intact cell preparations. Intracellular cAMP formation was measured by radioimmunoassay (cAMP Radioimmunoassay kit, Advanced Magnetics, Cambridge, Mass.) using methodology outlined by Zgombick et al. (1991). Radioactivity was quantitatied using a Packard COBRA Auto Gamma Counter (equipped with data reduction software).

[6] = Ki (apparent dissociation constants for clone hp78a)
[7] = read-out: Ki (apparent dissociation constants for clone hp78a)
[8] = 100 nM competitor, 5 nM [3H]5-HT, 30 min at 37° C.
[9] = 5 nM [3H]5-HT, seven concentrations of competitor, 30 min at 37° C., mean ± S.E.M., 2-5 determinations, read-out: Ki (apparent dissociation constants for clone hp78a)
[10] = dissociation constant of antagonist, KB = [B]/(A′/A) − 1], read-out: KB
[11] = normalized to the 5-HT maximal response
[12] = 30 nM competitor, 5 nM [3H]5-HT, 30 min at 37° C.

T2 sequence (P34969 1-445 isoform P34969-2): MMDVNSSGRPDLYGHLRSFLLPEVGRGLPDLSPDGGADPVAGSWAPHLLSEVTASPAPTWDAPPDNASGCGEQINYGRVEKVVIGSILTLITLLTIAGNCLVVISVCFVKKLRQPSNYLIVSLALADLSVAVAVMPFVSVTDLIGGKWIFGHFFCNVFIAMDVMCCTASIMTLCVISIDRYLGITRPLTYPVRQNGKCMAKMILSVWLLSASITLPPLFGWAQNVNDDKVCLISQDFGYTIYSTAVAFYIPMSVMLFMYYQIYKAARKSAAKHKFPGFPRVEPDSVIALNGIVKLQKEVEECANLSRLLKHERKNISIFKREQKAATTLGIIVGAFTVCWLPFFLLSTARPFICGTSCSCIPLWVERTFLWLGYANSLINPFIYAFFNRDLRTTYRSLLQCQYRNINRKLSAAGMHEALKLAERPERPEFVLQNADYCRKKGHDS
T3 sequence (P34969 1-445 isoform P34969-2): as above
T1 sequence (P32305 whole entry): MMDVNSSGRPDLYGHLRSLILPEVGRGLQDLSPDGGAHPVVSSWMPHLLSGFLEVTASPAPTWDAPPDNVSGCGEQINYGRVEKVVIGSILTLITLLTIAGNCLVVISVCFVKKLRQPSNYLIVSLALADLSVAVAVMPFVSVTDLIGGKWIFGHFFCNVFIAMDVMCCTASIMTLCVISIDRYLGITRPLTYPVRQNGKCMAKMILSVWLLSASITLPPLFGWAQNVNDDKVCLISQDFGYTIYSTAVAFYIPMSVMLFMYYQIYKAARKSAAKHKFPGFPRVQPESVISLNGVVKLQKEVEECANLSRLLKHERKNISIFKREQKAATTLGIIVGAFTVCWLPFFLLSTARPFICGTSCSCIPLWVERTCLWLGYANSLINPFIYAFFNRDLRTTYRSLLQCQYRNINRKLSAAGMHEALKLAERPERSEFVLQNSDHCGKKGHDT

SMILES: CN1C[C@H](C(=O)N[C@]2(C)O[C@@]3(O)[C@@H]4CCCN4C(=O)[C@H](Cc4ccccc4)N3C2=O)C=C2c3cccc4[nH]cc(c34)C[C@H]21 [Ergotamine]
- effect on specific [3H]5-CT binding (5-HT4B receptor; 1 μM, 0.5 nM [3H]5-CT): completely eliminated
- Ki [1, 6]: 0.015 µM
- Ki ([1]; Ki for clone hp78a): < 0.02 µM

SMILES: CNS(=O)(=O)Cc1ccc2[nH]cc(CCN(C)C)c2c1 [Sumatriptan]
- Ki [1, 7]: 0.951 ± 0.118 µM

SMILES: COC(=O)[C@@H]1[C@H]2C[C@H]3c4[nH]c5ccccc5c4CCN3C[C@@H]2CC[C@@H]1O [Yohimbine]
- Ki [1, 7]: 2.85 ± 0.354 µM

SMILES: CC(C)NCC(O)COc1cccc2ccccc12 (stereo not shown) [Propranolol]
- PERCENT INHIBITION (displacement of specific [3H]5-HT binding) [1, 8]: 0

SMILES: Nc1nc2c(ncn2[C@@H]2O[C@H](COP(=O)(O)OP(=O)(O)NP(=O)(O)O)[C@@H](O)[C@H]2O)c(=O)[nH]1 [Gpp(NH)p, 5′-guanylylimidodiphosphate]
- reduction of high affinity [3H]5-HT binding [1]: 75%

SMILES: CN(C)CCc1c[nH]c2ccc(O)cc12 [Bufotenin]
- Ki [1, 6]: 0.026 µM

SMILES: CN1C[C@H](CNC(=O)OCc2ccccc2)C[C@@H]2c3cccc4c3c(cn4C)C[C@H]21 [Metergoline]
- antagonism of the 5-HT response (human 5-HT4B receptor [2]; 10 μM): almost completely
- FOLD cAMP STIMULATION (human 5-HT4B receptor [2]; 10 μM drug, relative to basal levels): 0
- Ki [1, 9]: 0.0064 ± 0.0014 µM

SMILES: CC(N)Cc1c[nH]c2ccc(O)cc12 (racemic) [α-Methyl-5-hydroxy-tryptamine]
- Ki [1, 6]: 0.509 µM

SMILES: COc1cc(N)c(Cl)cc1C(=O)NC1CN2CCC1CC2 (stereo not shown) [Zacopride]
- activity at the clone hp78a receptor (human 5-HT4B receptor [2]): either poorly active or inactive
- Ki [1, 7]: > 5 µM

SMILES: CC(C)NCC(O)COc1cccc2[nH]ccc12 (single isomer, unassigned; (-)) [(−)pindolol]
- effect on [3H]5-CT binding (5-HT4B receptor): markedly reduced

SMILES: CN1C[C@H](C(=O)N[C@]2(C)O[C@@]3(O)[C@@H]4CCCN4C(=O)[C@H](Cc4ccccc4)N3C2=O)C[C@@H]2c3cccc4[nH]cc(c34)C[C@H]21 [Dihydroergotamine]
- INTRINSIC ACTIVITY (human 5-HT4B receptor [3]): ANTAGONIST
- Emax (human 5-HT4B receptor [3]): 0%
- Kb (human 5-HT4B receptor [3]; [10]): 0.02 ± 0.004 µM
- Ki [1, 6]: 0.0069 ± 0.0009 µM

SMILES: O=C(CCCN1CCC2(CC1)C(=O)NCN2c1ccccc1)c1ccc(F)cc1 [Spiperone]
- Ki [1, 9]: 0.11 ± 0.017 µM

SMILES: CC(C)NCC(O)COc1cccc2[nH]ccc12 (racemic) [Pindolol]
- Ki [1, 7]: > 5 µM

SMILES: CN1C[C@@H](NS(=O)(=O)N(C)C)C[C@@H]2c3cccc4c3c(cn4C)C[C@H]21 [Mesulergine]
- Emax (human 5-HT4B receptor [3]): 0%
- Kb (human 5-HT4B receptor [3]; [10]): 0.02 ± 0.001 µM

SMILES: NCCc1c[nH]c2ccc(OCc3ccccc3)cc12 [5-Benzyloxytryptamine]
- Ki [1, 6]: 0.729 µM

SMILES: COc1ccc2[nH]cc(CCN)c2c1 [5-MeOT, 5-Methoxytryptamine]
- agonist activity (human 5-HT4B receptor [2]): potent agonists
- INTRINSIC ACTIVITY (human 5-HT4B receptor [3]): AGONIST (key: AGONIST indicates that the maximal response to the drug was at least 80% of the maximum response obtained with 5-HT)
- functional character (human 5-HT4B receptor [3]): potent agonists
- Emax (human 5-HT4B receptor [3]): 100 ± 5%

SMILES: CCN(CC)C(=O)[C@@H]1C=C2c3cccc4[nH]c(Br)c(c34)C[C@H]2N(C)C1 [2-Bromo-LSD]
- % INHIBITION OF 5-HT RESPONSE (human 5-HT4B receptor [2]): 95 ± 4.5%
- FOLD cAMP STIMULATION (human 5-HT4B receptor [2]; 1 μM drug, relative to basal levels): 0
- INTRINSIC ACTIVITY (human 5-HT4B receptor [3]): ANTAGONIST
- Kb (human 5-HT4B receptor [3]; [10]): 0.012 ± 0.003 µM
- Emax* (% 5-HT RESPONSE) (human 5-HT4B receptor [3]; [11]): 0 % 5-HT RESPONSE
- antagonism [4]: Potent antagonism
- Ki [1, 7]: 0.03 ± 0.01 µM

SMILES: NCCc1c[nH]cn1 [Histamine]
- PERCENT INHIBITION (displacement of specific [3H]5-HT binding) [1, 8]: 10

SMILES: c1ccc2nc(N3CCNCC3)ccc2c1 [Quipazine]
- PERCENT INHIBITION (displacement of specific [3H]5-HT binding) [1, 8]: 3

SMILES: NCCc1ccc(O)c(O)c1 [Dopamine]
- PERCENT INHIBITION (displacement of specific [3H]5-HT binding) [1, 12]: 0

SMILES: CCN(CC)C(=O)[C@@H]1C=C2c3cccc4[nH]cc(c34)C[C@H]2N(C)C1 [d-LSD]
- INTRINSIC ACTIVITY (human 5-HT4B receptor [3]): ANTAGONIST
- Emax* (% 5-HT RESPONSE) (human 5-HT4B receptor [3]; [11]): 0 % 5-HT RESPONSE
- PERCENT INHIBITION (displacement of specific [3H]5-HT binding) [1]: 77

SMILES: CC[C@@H](CO)NC(=O)[C@@H]1C=C2c3cccc4c3c(cn4C)C[C@H]2N(C)C1 [Methysergide]
- FOLD cAMP STIMULATION (human 5-HT4B receptor [2]): 1.7 ± 0.43
- antagonism of the 5-HT response (human 5-HT4B receptor [2]): almost completely
- antagonism [4]: Potent antagonism
- Ki [1, 7]: 0.083 ± 0.005 µM

SMILES: COc1cc(CC(C)N)c(OC)cc1I (stereo not shown) [DOI]
- PERCENT INHIBITION (displacement of specific [3H]5-HT binding) [1]: 20

SMILES: Cc1cc(C(C)(C)C)c(O)c(C)c1CC1=NCCN1 [Oxymetazoline]
- PERCENT INHIBITION (displacement of specific [3H]5-HT binding) ([1]; 10 nM competitor, 5 nM [3H]5-HT, 30 min at 37° C.): 6

SMILES: Nc1ccc(CCN2CCN(c3cccc(C(F)(F)F)c3)CC2)cc1 [PAPP]
- effect on [3H]5-CT binding (5-HT4B receptor): markedly reduced
- PERCENT INHIBITION (displacement of specific [3H]5-HT binding) [1]: 21

SMILES: CN1[C@@H]2CC[C@H]1C[C@@H](OC(=O)c1c[nH]c3ccccc13)C2 [ICS 203930]
- inhibitory effect on the 5-HT response (human 5-HT4B receptor [2]; 100 μM): weak inhibitory effect
- % INHIBITION OF 5-HT RESPONSE (human 5-HT4B receptor [2]; 100 μM drug, cAMP response to 1 μM 5-HT): 36 ± 3.0%
- FOLD cAMP STIMULATION (human 5-HT4B receptor [2]; 100 μM drug, relative to basal levels): 0
- activity at the clone hp78a receptor (human 5-HT4B receptor [2]): either poorly active or inactive
- PERCENT INHIBITION (displacement of specific [3H]5-HT binding) ([1]; 1000 nM competitor, 5 nM [3H]5-HT, 30 min at 37° C.): 10

SMILES: COc1cc(N)c(Cl)cc1C(=O)NC1CCN(CCCOc2ccc(F)cc2)CC1OC (stereo not shown) [cisapride]
- activity at the clone hp78a receptor (human 5-HT4B receptor [2]): either poorly active or inactive

SMILES: c1ccc2c(N3CCNCC3)cccc2c1 [1-Naphthylpiperazine]
- Ki [1, 7]: 0.083 ± 0.019 µM

SMILES: CC(C)C[C@H]1C(=O)N2CCC[C@H]2[C@]2(O)O[C@](NC(=O)[C@@H]3C=C4c5cccc6[nH]c(Br)c(c56)C[C@H]4N(C)C3)(C(C)C)C(=O)N12 [Bromocriptine]
- Kb (human 5-HT4B receptor [3]): 0.24 ± 0.01 µM
- Emax (human 5-HT4B receptor [3]): 0%

SMILES: NC[C@H](O)c1ccc(O)c(O)c1 [Norepinephrine]
- PERCENT INHIBITION (displacement of specific [3H]5-HT binding) [1, 12]: 0

SMILES: O=C(c1ccc(F)cc1)C1CCN(CCn2c(=O)[nH]c3ccccc3c2=O)CC1 [Ketanserin]
- Ki [1, 9]: 1.33 ± 0.241 µM

SMILES: NCCc1c[nH]c2ccc(O)cc12 [5-HT, 5-Hydroxytryptamine]
- increase in cAMP release over basal levels (human 5-HT4B receptor [2]): 20 fold
- stimulation of basal cAMP release (human 5-HT4B receptor [2]): 7 fold
- stimulation of intracellular cAMP accumulation (human 5-HT4B receptor [2]; coincubation of 1 μM FSK and 1 μM 5-HT): 75 fold
- INTRINSIC ACTIVITY (human 5-HT4B receptor [3]): AGONIST (AGONIST indicates that the maximal response to the drug was at least 80% of the maximum response obtained with 5-HT)
- effect on basal or FSK-stimulated adenylate cyclase activity [5]: no effect
- EC50 ([4]; read-out: EC50 value for 5-HT stimulation of cAMP): 0.5 to 1 µM

SMILES: CCCN(CCC)C1CCc2cccc(O)c2C1 (stereo not shown)
- stimulation of basal cAMP release (human 5-HT4B receptor [2]): about 2 fold
- INTRINSIC ACTIVITY (human 5-HT4B receptor [3]): PARTIAL AGONIST
- functional character (human 5-HT4B receptor [3]): weak agonist
- Emax* (% 5-HT RESPONSE) (human 5-HT4B receptor [3]; [11]): 51 ± 14 % 5-HT RESPONSE

SMILES: O=C1NCN(c2ccccc2)C12CCN(CC1COc3ccccc3O1)CC2 (stereo not shown) [Spiroxatrine]
- PERCENT INHIBITION (displacement of specific [3H]5-HT binding) [1, 12]: 12

SMILES: CCCN(CCC)CCc1c[nH]c2ccc(C(N)=O)cc12 [Dipropyl-5-carboxamidotryptamine]
- EC50 (human 5-HT4B receptor [3]): 2.4 µM
- Emax* (% 5-HT RESPONSE) (human 5-HT4B receptor [3]): 86 ± 12 % 5-HT RESPONSE
- INTRINSIC ACTIVITY (human 5-HT4B receptor [3]): AGONIST (key: AGONIST indicates that the maximal response to the drug was at least 80% of the maximum response obtained with 5-HT)
- Ki [1, 7]: 0.037 ± 0.021 µM

SMILES: Cc1nc2sccn2c(=O)c1CCN1CCC(=C(c2ccc(F)cc2)c2ccc(F)cc2)CC1 [Ritanserin]
- Ki [1, 9]: 0.045 ± 0.01 µM
